Laboratory results: paper PMC9814205, “Targeting undruggable carbohydrate recognition sites through focused fragment library design” (Communications Chemistry, 2022)
Where “and” joins values, the source holds several entries; their conditions need not be identical. Equal values may be shown once. Entries after “also recorded” stand apart in the source; their conditions may differ.

Key:
Type in all cases: binding
LecA [1] = target: T1, LecA (Pseudomonas aeruginosa, UniProt Q05097); assay: Competitive fluorescence polarization (FP) assay; settings: for Inhibition in FP: compared to MeGal at 10 mM (16 h); for inhibition at 10000 µM: read-out: Inhibition in FP, compared to MeGal at 10 mM (16 h)
T1 construct: made in house
T1 sequence (Q05097 whole entry): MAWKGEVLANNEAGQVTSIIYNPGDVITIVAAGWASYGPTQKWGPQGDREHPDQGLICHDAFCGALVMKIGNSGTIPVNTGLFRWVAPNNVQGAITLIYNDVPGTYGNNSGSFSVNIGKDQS
Experimental: The FP assay was performed in a black 384-well plate (Greiner Bio-One, Germany, 781900) with the final volume of 20 µL as described previously. Briefly, 10 µL of a sample solution series (10–0.078 mM) in TBS buffer containing 10 mM Ca^2+ (TBS/Ca^2+-buffer) and 20% DMSO were added in technical triplicates to 10 µL LecA (40 µM) preincubated with a galactose-based Cy5 conjugate[68] (20 nM) in TBS/Ca^2+-buffer. […] The plate was sealed (EASYseal, Greiner Bio-One, 676,001), centrifuged (1 min, 1500 rpm, 25 °C) and incubated in a humidity chamber for 16 h. The fluorescence was measured with an excitation 590 nm and emission 675 nm filter[68] on a PheraStar FS plate reader (BMG Labtech GmbH, Germany). The blank signal of TBS/Ca^2+-buffer containing 10% DMSO was subtracted and the compounds were analyzed with the MARS Data Analysis Software (BMG Labtech GmbH Germany) using the four-parameter variable slope model. The top and bottom plateaus were defined according to the positive controls. The graphs were visualized using Graphpad Prism 5. The percentage (%) of inhibition was calculated at the highest concentration compared with 10 mM MeGal set to 100%.

LecA [2] = target: T1, LecA; assay: Competitive 19F T2-filtered NMR with reporter 5; settings: 0.1 mM 5, 10 mM CaCl2, 3 mM competitor
Experimental: The analogs of 1 (5) and 58 (61) were used as fluorinated spy molecules in ^19F T2-filtered NMR experiments. Two samples containing 0.1 mM 5 or 61 alone or a 10 µM protein in TBS/EDTA buffer followed by addition of 10 mM CaCl2 and the carbohydrates: 1 mM MeGal (LecA), 1 mM MeFuc (LecB/BambL) and 30 mM D-mannose (DC-SIGN/Langerin). Similarly, 0.1 mM 5 was used to prioritize hydroxamate derivatives, where 3 mM analogs of 1 were added to the samples instead of the carbohydrates. The ^19F and ^19F T2-filtered spectra were recorded with 64 scans, a spectral width of 5 ppm, a transmitter offset at −155.5 ppm (5) and −155.5 ppm (61), the acquisition time of 0.8 s, 2 s relaxation time applying a T2-filter of 384 ms. All spectra were analyzed as described above.

5FW LecA (PA-IL) = target: T2, 5FW LecA (PA-IL) (Pseudomonas aeruginosa, UniProt Q05097); assay: PrOF NMR with 5-fluorotryptophan-labeled LecA; settings: for LE: ligand efficiency calculated from Kd for LecA, 310 K
T2 construct: made in house
T2 sequence (Q05097 2-122): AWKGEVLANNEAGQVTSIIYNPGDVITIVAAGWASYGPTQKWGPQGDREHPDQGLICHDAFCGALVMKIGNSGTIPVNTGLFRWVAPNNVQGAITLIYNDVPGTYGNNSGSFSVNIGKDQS
Experimental: PrOF NMR was performed as reported previously. Briefly, 150 µM 5FW LecA was recorded alone and in the presence of DMSO or 2–4 mM compounds in TBS/Ca^2+ buffer. The difference in chemical shift perturbations of W42 in 5FW LecA free vs bound forms was followed to determine Kd values of compounds. The Kd values were calculated according to the one-site-binding model in Origin(Pro) 2020b (OriginLab Corp., USA) from two or three independent titrations. Ligand efficiency values were calculated according to Eq. (1) for a temperature of 310 K.

LecB (PA-IIL) = target: T3, LecB (PA-IIL) (Pseudomonas aeruginosa, UniProt Q9HYN5); assay: 1H-15N TROSY NMR with 15N LecB; settings: 2 mM compound
T3 construct: made in house
T3 sequence (Q9HYN5 entry or part of it): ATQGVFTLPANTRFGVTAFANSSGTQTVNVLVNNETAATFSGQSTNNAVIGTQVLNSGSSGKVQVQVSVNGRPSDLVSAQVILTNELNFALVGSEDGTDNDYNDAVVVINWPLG
Experimental: The ^1H-^15N TROSY pulse sequence trosyf3gpphsi19 with 128 increments and 32 scans per increment was applied for 0.15 mM ^15N LecA and 0.07 mM LecB in HBS/Ca^2+ buffer (20 mM HEPES pH 7.4, 150 mM NaCl, 10 mM CaCl2, 10% D2O and 100 µM sodium trimethylsilylpropanesulfonate (DSS) as internal reference) at 310 K. The ^1H-^15N HSQC pulse sequence hsqcf3gpph19 with 128 increments and 8 scans per increment was applied for 0.1 mM ^15N DC-SIGN and Langerin CRD in HBS/Ca^2+ buffer at 298 K. For screening of 650 non-fluorinated fragments of the general library against ^15N LecA, a mix of 10 compounds at 1 mM each was combined with 0.15 mM ^15N LecA in HBS/Ca^2+ buffer (20 mM HEPES pH 7.4, 150 mM NaCl, 10 mM CaCl2, 10% D2O and 100 µM sodium trimethylsilylpropanesulfonate (DSS) as internal reference, whereas the fragments with the MBP scaffolds were validated separately at 1 mM. Similarly, 9 nonfluorinated fragments from the MBP library were screened against ^15N-labeled DC-SIGN, LecA and LecB. To validate the fragment binding to proteins, we recorded ^1H-^15N HSQC and TROSY NMR of proteins in the presence of DMSO as negative control and 2 mM fragments in HBS/Ca^2+ buffer. Natural ligands were used as positive controls at 1 mM MeGal, MeFuc and 30 mM D-mannose to LecA/LecB and DC-SIGN CRD/Langerin CRD, respectively. Titration experiments with ^15N-labeled DC-SIGN CRD or LecB were recorded in HBS/Ca^2+ buffer with 30 mM CaCl2 and 0.25 to 4–8 mM malonic acid derivatives. The Kd values were calculated according to the one-site-binding model in Origin(Pro) 2020b (OriginLab Corp., USA). […]
All data were processed with NMRpipe[65] and analyzed with CcpNmr analysis. […] The changes in chemical shift perturbations (CSPs) were calculated according to Eq. (2):2 △δ=1/2△δH2+α△δN^2 in which δ is the difference in chemical shift (in ppm) and α is an empirical weighting factor of 0.14 for all amino acid backbone resonances. […]

15N LecA = target: T4, 15N LecA (Pseudomonas aeruginosa, UniProt Q05097); assay: 1H-15N TROSY NMR with 15N LecA; settings: for binding to 15N LecA in TROSY NMR: 4 mM analogs of 1, 1 mM marketed hydroxamates
T4 construct: made in house
T4 sequence (Q05097 whole entry): as the sequence (Q05097 whole entry) above
Experimental: The ^1H-^15N TROSY pulse sequence trosyf3gpphsi19 with 128 increments and 32 scans per increment was applied for 0.15 mM ^15N LecA and 0.07 mM LecB in HBS/Ca^2+ buffer (20 mM HEPES pH 7.4, 150 mM NaCl, 10 mM CaCl2, 10% D2O and 100 µM sodium trimethylsilylpropanesulfonate (DSS) as internal reference) at 310 K. The ^1H-^15N HSQC pulse sequence hsqcf3gpph19 with 128 increments and 8 scans per increment was applied for 0.1 mM ^15N DC-SIGN and Langerin CRD in HBS/Ca^2+ buffer at 298 K. For screening of 650 non-fluorinated fragments of the general library against ^15N LecA, a mix of 10 compounds at 1 mM each was combined with 0.15 mM ^15N LecA in HBS/Ca^2+ buffer (20 mM HEPES pH 7.4, 150 mM NaCl, 10 mM CaCl2, 10% D2O and 100 µM sodium trimethylsilylpropanesulfonate (DSS) as internal reference, whereas the fragments with the MBP scaffolds were validated separately at 1 mM. Similarly, 9 nonfluorinated fragments from the MBP library were screened against ^15N-labeled DC-SIGN, LecA and LecB. To validate the fragment binding to proteins, we recorded ^1H-^15N HSQC and TROSY NMR of proteins in the presence of DMSO as negative control and 2 mM fragments in HBS/Ca^2+ buffer. Natural ligands were used as positive controls at 1 mM MeGal, MeFuc and 30 mM D-mannose to LecA/LecB and DC-SIGN CRD/Langerin CRD, respectively. Titration experiments with ^15N-labeled DC-SIGN CRD or LecB were recorded in HBS/Ca^2+ buffer with 30 mM CaCl2 and 0.25 to 4–8 mM malonic acid derivatives. The Kd values were calculated according to the one-site-binding model in Origin(Pro) 2020b (OriginLab Corp., USA). Ligand efficiency calculations were done according to Eq. (1) for a temperature of 298 K and 310 K for DC-SIGN CRD and LecB, respectively.1 LE=RTlnKd/HA, with the temperature T [K], the gas constant R [kcal mol^−1 K^−1], and the number of non-hydrogen atoms HA[56].
All data were processed with NMRpipe[65] and analyzed with CcpNmr analysis. For data analysis, the protein fingerprint of ^15N DC-SIGN (Table S7) or Langerin CRD was assigned as reported previously. The ^1H-^15N TROSY resonances of ^15N LecA and ^15N LecB were indexed with IDs due to a lack of protein backbone resonance assignment (Tables S8-S9). Next, resonance IDs from protein spectra were transferred to the spectra obtained in the presence of compounds in order to compare the changes in chemical shift perturbations for the fast exchange peaks. The changes in chemical shift perturbations (CSPs) were calculated according to Eq. (2):2 △δ=1/2△δH2+α△δN^2 in which δ is the difference in chemical shift (in ppm) and α is an empirical weighting factor of 0.14 for all amino acid backbone resonances. The threshold value was set based on three independent measurements of reference spectra to 0.01 ppm for LecA, LecB, DC-SIGN CRD and Langerin CRD.

LecA [3] = target: T1, LecA; assay: SPR with immobilized LecA; settings: compounds at 0.2 and 1 mM
Experimental: All experiments were performed on a BIACORE X100 instrument (GE Healthcare) at 25 °C in phosphate-buffered saline (10 mM phosphate buffer pH 7.4, 2.7 mM KCl, 137 mM NaCl, 0.05% Tween-20, 100 µM CaCl2, 5% DMSO). LecA was immobilized onto a CM7 chip (BIACORE) following standard amine coupling procedures. The CM7 chip was activated by three injections of a NHS/EDC mixture with a contact time of 540 s at a flow rate of 10 µL min^−1 until the response exceeded 800 RU, followed by multiple injections of LecA dissolved in 10 mM sodium acetate pH 4.5 (100 µg/mL) onto channel 2 (contact time of 540 s at a flow rate of 10 µL min^−1). A minimum of 10,000 RU of LecA was captured onto the chip. Initial binding screens were performed with the injections of 0.2 and 1 mM of each hydroxamate (association 30 s, dissociation 60 s, 30 µL min^−1 flow rate), to identify the initial binders eliciting dose-response behaviors. Injection of the positive control (0.1 mM 4-Nitrophenyl-β-D-galactoside) was included after every forth injection cycle to monitor the activity of immobilized LecA throughout the binding screen experiments. All data evaluation was performed using BIACORE X100 evaluation software (v.2.0).

SMILES	Kd (5FW LecA (PA-IL)) [mM]	Inhibition in FP (LecA [1])	inhibition at 10000 µM (LecA [1]) [%]	binding to 15N LecA in TROSY NMR (15N LecA)	other results
NC(C(=O)NO)c1ccccc1 (stereo not drawn) [compound 1]	7.2 ± 1.4	–	–	–	inhibition at 4000 µM (LecA [1]; read-out: Inhibition in FP, compared to MeGal, measured at 4 mM (16 h)): 6%; competition of reporter 5 from LecA (recovery of 19F peak) (LecA [2]): did not displace; LE (5FW LecA (PA-IL)): 0.25 kcal mol^−1 HA^−1; binding to 15N LecB in TROSY NMR (LecB (PA-IIL)): did not bind; total % of CSPs normalized to MeGal in 15N LecA (15N LecA; 2 mM compound, 1 mM MeGal): 40%; Efficiency in SPR (normalized binding response) (LecA [3]): 11.6%
O=C(Cc1ccccc1)NO [compound 2, N-hydroxy-2-phenylacetamide]	6.1 ± 0.9	18 ± 1%	18.3 ± 1	preserved the binding	competition of reporter 5 from LecA (recovery of 19F peak) (LecA [2]): recovered
O=C(CC1CCCCC1)NO [compound 6]	4.4 ± 0.6	–	21 ± 1	preserved its binding	LE (5FW LecA (PA-IL)): 0.30 kcal mol^−1 HA^−1
CONC(=O)Cc1ccccc1 [compound 7]	–	lost their binding and inhibitory effect; also recorded: No inhibiton	–	not tolerated	–
CN(O)C(=O)Cc1ccccc1 [compound 8]	–	–	20 ± 3	not tolerated	–
Cc1ccc(CC(=O)NO)cc1 [compound 9]	–	14–16% and 16 ± 2%	–	–	–
Cc1ccccc1CC(=O)NO [compound 10]	–	14–16% and 14 ± 4%	–	–	–
O=C(Cc1ccc(Br)cc1)NO [compound 11]	–	14–16% and 14 ± 1%	–	–	–
COc1ccc(CC(=O)NO)cc1 [compound 15]	–	14–16% and 16 ± 4%	–	–	–
COc1cccc(C(O)=CC(=O)NO)c1 [compound 31]	–	–	9 ± 2	–	–
O=C(CCCc1ccccc1)NO [compound 35, N-hydroxy-4-phenylbutanamide]	4.6 ± 0.9	–	26 ± 1	preserved the binding	competition of reporter 5 from LecA (recovery of 19F peak) (LecA [2]): recovered; also recorded: displaced; LE (5FW LecA (PA-IL)): 0.26 kcal mol^−1 HA^−1
